# Laboratory results as given in US10214508B2, “Nitrogen-containing heterocyclic compound” (Takeda Pharmaceutical Company Limited, priority 2014, dated 2019).
# Target: T1, human M1 receptor (hCHRM1) (Homo sapiens, UniProt P11229)
# T1 construct: expressed in transfected cells
# T1 sequence (P11229 1-460): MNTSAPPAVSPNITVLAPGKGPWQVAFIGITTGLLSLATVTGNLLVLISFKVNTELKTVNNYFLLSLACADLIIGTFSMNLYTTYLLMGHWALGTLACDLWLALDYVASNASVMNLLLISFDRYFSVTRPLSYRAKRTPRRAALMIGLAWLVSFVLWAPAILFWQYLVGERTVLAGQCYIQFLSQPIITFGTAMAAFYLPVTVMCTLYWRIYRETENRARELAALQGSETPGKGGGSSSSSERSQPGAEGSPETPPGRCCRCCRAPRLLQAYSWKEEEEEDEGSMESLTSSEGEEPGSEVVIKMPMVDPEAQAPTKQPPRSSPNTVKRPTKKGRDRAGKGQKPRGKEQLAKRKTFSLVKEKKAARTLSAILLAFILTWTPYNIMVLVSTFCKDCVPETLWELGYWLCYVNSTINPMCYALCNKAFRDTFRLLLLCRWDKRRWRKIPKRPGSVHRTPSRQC
# Assay: Measurement of M1 receptor positive allosteric modulator (M1PAM) activity, calcium fluorescence (FLIPRtetra)
# Format: cell-based
# Settings: 10 μM test compound with acetylcholine at EC20 (final 0.6-0.8 nM); 100% = acetylcholine 1 μM, 0% = DMSO; CHO-K1 cells expressing hCHRM1
# Method in brief: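 CHO-K1 cells stably expressing hM1 were Fluo-4-loaded; compound added with acetylcholine at EC20 (0.6-0.8 nM final), calcium fluorescence read 1 min on FLIPRtetra. Activity scaled between DMSO (0%) and 1 μM acetylcholine (100%); inflection point of concentration–response reported as IP.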
row,activity (%) at 10 μM [%],Structure (SMILES)
1,99,"COc1nc(C(=O)N[C@H]2CCCC[C@@H]2O)cc(Cc2ccc(-c3ccn(C)n3)cc2)c1C [Example 88, N-((1S,2S)-2-hydroxycyclohexyl)-6-methoxy-5-methyl-4-(4-(1-methyl-1H-pyrazol-3-yl)benzyl)pyridine-2-carboxamide]"
2,101,"COc1nc(C(=O)N[C@H]2COCC[C@@H]2O)cc(Cc2ccc(-c3ccn(C)n3)cc2)c1C [Example 89, 1,5-anhydro-2,4-dideoxy-2-(((6-methoxy-5-methyl-4-(4-(1-methyl-1H-pyrazol-3-yl)benzyl)pyridin-2-yl)carbonyl)amino)-L-threo-pentitol]"
3,106,"COc1nc(C(=O)N[C@H]2CCC[C@@H]2O)cc(Cc2ccc(-c3ccn(C)n3)cc2)c1C [Example 90, N-((1S,2S)-2-hydroxycyclopentyl)-6-methoxy-5-methyl-4-(4-(1-methyl-1H-pyrazol-3-yl)benzyl)pyridine-2-carboxamide]"
4,98,"COc1nc(C(=O)N[C@H]2CCCC[C@@H]2O)cc(Cc2ccc(-n3cccn3)cc2)c1C [Example 91, N-((1S,2S)-2-hydroxycyclohexyl)-6-methoxy-5-methyl-4-(4-(1H-pyrazol-1-yl)benzyl)pyridine-2-carboxamide]"
5,99,"COc1nc(C(=O)N[C@H]2COCC[C@@H]2O)cc(Cc2ccc(-n3cccn3)cc2)c1C [Example 92, 1,5-anhydro-2,4-dideoxy-2-(((6-methoxy-5-methyl-4-(4-(1H-pyrazol-1-yl)benzyl)pyridin-2-yl)carbonyl)amino)-L-threo-pentitol]"
6,105,"COc1nc(C(=O)N[C@H]2CCC[C@@H]2O)cc(Cc2ccc(-n3cccn3)cc2)c1C [Example 93, N-((1S,2S)-2-hydroxycyclopentyl)-6-methoxy-5-methyl-4-(4-(1H-pyrazol-1-yl)benzyl)pyridine-2-carboxamide]"
7,101,"O=C(N[C@H]1CCCC[C@@H]1O)c1cc(Cc2ccc(-n3cccn3)cc2)c(OC(F)F)cn1 [Example 94, 5-(difluoromethoxy)-N-((1S,2S)-2-hydroxycyclohexyl)-4-(4-(1H-pyrazol-1-yl)benzyl)pyridine-2-carboxamide]"
8,99,"O=C(N[C@H]1COCC[C@@H]1O)c1cc(Cc2ccc(-n3cccn3)cc2)c(OC(F)F)cn1 [Example 95, 1,5-anhydro-2,4-dideoxy-2-(((5-(difluoromethoxy)-4-(4-(1H-pyrazol-1-yl)benzyl)pyridin-2-yl)carbonyl)amino)-L-threo-pentitol]"
9,112,"Cc1nc(C(=O)N[C@H]2COCC[C@@H]2O)cc(Cc2ccc(-c3ccn(C)n3)cc2)c1Cl [Example 96, 1,5-anhydro-2-(((5-chloro-6-methyl-4-(4-(1-methyl-1H-pyrazol-3-yl)benzyl)pyridin-2-yl)carbonyl)amino)-2,4-dideoxy-L-threo-pentitol]"
10,93,"Cc1nc(C(=O)N[C@H]2CCC[C@@H]2O)cc(Cc2ccc(-c3ccn(C)n3)cc2)c1Cl [Example 97, 5-chloro-N-((1S,2S)-2-hydroxycyclopentyl)-6-methyl-4-(4-(1-methyl-1H-pyrazol-3-yl)benzyl)pyridine-2-carboxamide]"
11,94,"Cc1nc(C(=O)N[C@H]2CCCC[C@@H]2O)cc(Cc2ccc(-n3cccn3)cc2)c1Cl [Example 98, 5-chloro-N-((1S,2S)-2-hydroxycyclohexyl)-6-methyl-4-(4-(1H-pyrazol-1-yl)benzyl)pyridine-2-carboxamide]"
12,96,"Cc1nc(C(=O)N[C@H]2COCC[C@@H]2O)cc(Cc2ccc(-n3cccn3)cc2)c1Cl [Example 99, 1,5-anhydro-2-(((5-chloro-6-methyl-4-(4-(1H-pyrazol-1-yl)benzyl)pyridin-2-yl)carbonyl)amino)-2,4-dideoxy-L-threo-pentitol]"
13,97,"Cc1nc(C(=O)N[C@H]2CCC[C@@H]2O)cc(Cc2ccc(-n3cccn3)cc2)c1Cl [Example 100, 5-chloro-N-((1S,2S)-2-hydroxycyclopentyl)-6-methyl-4-(4-(1H-pyrazol-1-yl)benzyl)pyridine-2-carboxamide]"
14,105,"Cc1nc(C(=O)N[C@H]2COCC[C@@H]2O)cc(Cc2ccc(C#N)cc2)c1Cl [Example 101, 1,5-anhydro-2-(((5-chloro-4-(4-cyanobenzyl)-6-methylpyridin-2-yl)carbonyl)amino)-2,4-dideoxy-L-threo-pentitol]"
15,104,"COc1ccc(Cc2cc(C(=O)N[C@H]3COCC[C@@H]3O)nc(C)c2Cl)cc1 [Example 102, 1,5-anhydro-2-(((5-chloro-4-(4-methoxybenzyl)-6-methylpyridin-2-yl)carbonyl)amino)-2,4-dideoxy-L-threo-pentitol]"
16,109,"Cc1nc(C(=O)N[C@H]2CCCC[C@@H]2O)cc(Cc2ccc(Cl)nc2)c1Cl [Example 103, 5-chloro-4-((6-chloropyridin-3-yl)methyl)-N-((1S,2S)-2-hydroxycyclohexyl)-6-methylpyridine-2-carboxamide]"
17,102,"Cc1nc(C(=O)N[C@H]2CCCC[C@@H]2O)cc(Cc2ccc(C#N)nc2)c1Cl [Example 104, 5-chloro-4-((6-cyanopyridin-3-yl)methyl)-N-((1S,2S)-2-hydroxycyclohexyl)-6-methylpyridine-2-carboxamide]"
18,100,"COc1ccc(Cc2cc(C(=O)N[C@H]3CCCC[C@@H]3O)nc(C)c2Cl)cn1 [Example 105, 5-chloro-N-((1S,2S)-2-hydroxycyclohexyl)-4-((6-methoxypyridin-3-yl)methyl)-6-methylpyridine-2-carboxamide]"
19,104,"COc1ccc(Cc2cc(C(=O)N[C@H]3COCC[C@@H]3O)nc(C)c2Cl)cn1 [Example 106, 1,5-anhydro-2-(((5-chloro-4-((6-methoxypyridin-3-yl)methyl)-6-methylpyridin-2-yl)carbonyl)amino)-2,4-dideoxy-L-threo-pentitol]"
20,101,"Cc1nc(C(=O)N[C@H]2CCCC[C@@H]2O)cc(Cc2ccc(-c3ccn(C)n3)nc2)c1Cl [Example 107, 5-chloro-N-((1S,2S)-2-hydroxycyclohexyl)-6-methyl-4-((6-(1-methyl-1H-pyrazol-3-yl)pyridin-3-yl)methyl)pyridine-2-carboxamide]"
21,114,"CCn1cc(-c2ccc(Cc3cc(C(=O)N[C@H]4CCCC[C@@H]4O)nc(C)c3Cl)cn2)cn1 [Example 108, 5-chloro-4-((6-(1-ethyl-1H-pyrazol-4-yl)pyridin-3-yl)methyl)-N-((1S,2S)-2-hydroxycyclohexyl)-6-methylpyridine-2-carboxamide]"
22,95,"Cc1nn(C)cc1-c1ccc(Cc2cc(C(=O)N[C@H]3CCCC[C@@H]3O)nc(C)c2Cl)cn1 [Example 109, 5-chloro-4-((6-(1,3-dimethyl-1H-pyrazol-4-yl)pyridin-3-yl)methyl)-N-((1S,2S)-2-hydroxycyclohexyl)-6-methylpyridine-2-carboxamide]"
23,95,"Cc1ccc(Cc2cc(C(=O)N[C@H]3CCCC[C@@H]3O)nc(C)c2Cl)cn1 [Example 110, 5-chloro-N-((1S,2S)-2-hydroxycyclohexyl)-6-methyl-4-((6-methylpyridin-3-yl)methyl)pyridine-2-carboxamide]"
24,90,"Cc1ccc(Cc2cc(C(=O)N[C@H]3COCC[C@@H]3O)nc(C)c2Cl)cn1 [Example 111, 1,5-anhydro-2-(((5-chloro-6-methyl-4-((6-methylpyridin-3-yl)methyl)pyridin-2-yl)carbonyl)amino)-2,4-dideoxy-L-threo-pentitol]"
25,91,"Cc1nc(C(=O)N[C@H]2CCCC[C@@H]2O)cc(Cc2ccc(-n3cccn3)cc2)c1C#N [Example 112, 5-cyano-N-((1S,2S)-2-hydroxycyclohexyl)-6-methyl-4-(4-(1H-pyrazol-1-yl)benzyl)pyridine-2-carboxamide]"
26,94,"Cc1nc(C(=O)N[C@H]2COCC[C@@H]2O)cc(Cc2ccc(-n3cccn3)cc2)c1C#N [Example 113, 1,5-anhydro-2-(((5-cyano-6-methyl-4-(4-(1H-pyrazol-1-yl)benzyl)pyridin-2-yl)carbonyl)amino)-2,4-dideoxy-L-threo-pentitol]"
27,94,"Cc1nc(C(=O)N[C@H]2CCCC[C@@H]2O)cc(Cc2ccc(-c3ccn(C)n3)cc2)c1C#N [Example 114, 5-cyano-N-((1S,2S)-2-hydroxycyclohexyl)-6-methyl-4-(4-(1-methyl-1H-pyrazol-3-yl)benzyl)pyridine-2-carboxamide]"
28,111,"Cc1nc(C(=O)N[C@H]2COCC[C@@H]2O)cc(Cc2ccc(-c3ccn(C)n3)cc2)c1C#N [Example 115, 1,5-anhydro-2-(((5-cyano-6-methyl-4-(4-(1-methyl-1H-pyrazol-3-yl)benzyl)pyridin-2-yl)carbonyl)amino)-2,4-dideoxy-L-threo-pentitol]"
29,104,"Cc1nc(C(=O)N[C@H]2CCC[C@@H]2O)cc(Cc2ccc(Cl)nc2)c1C [Example 116, 4-((6-chloropyridin-3-yl)methyl)-N-((1S,2S)-2-hydroxycyclopentyl)-5,6-dimethylpyridine-2-carboxamide]"
